Experimental data published in article PMC9508125, “The evolutionary advantage of an aromatic clamp in plant family 3 glycoside exo-hydrolases” (Nature Communications, 2022).
Changes are numbered by the printed parent chain.

Legend:
Experiment in all cases: Relative rates of hydrolysis of poly-, oligosaccharides and aryl-glycosides
Assay type in all cases: biochemical
[1] = molecular target: T1, HvExoI W286F/W434A mutant (Hordeum vulgare, UniProt Q9XEI3, W311F/W459A); details: substance is the substrate, nd = activity not detected
T1 sequence (Q9XEI3 26-630 W311F/W459A): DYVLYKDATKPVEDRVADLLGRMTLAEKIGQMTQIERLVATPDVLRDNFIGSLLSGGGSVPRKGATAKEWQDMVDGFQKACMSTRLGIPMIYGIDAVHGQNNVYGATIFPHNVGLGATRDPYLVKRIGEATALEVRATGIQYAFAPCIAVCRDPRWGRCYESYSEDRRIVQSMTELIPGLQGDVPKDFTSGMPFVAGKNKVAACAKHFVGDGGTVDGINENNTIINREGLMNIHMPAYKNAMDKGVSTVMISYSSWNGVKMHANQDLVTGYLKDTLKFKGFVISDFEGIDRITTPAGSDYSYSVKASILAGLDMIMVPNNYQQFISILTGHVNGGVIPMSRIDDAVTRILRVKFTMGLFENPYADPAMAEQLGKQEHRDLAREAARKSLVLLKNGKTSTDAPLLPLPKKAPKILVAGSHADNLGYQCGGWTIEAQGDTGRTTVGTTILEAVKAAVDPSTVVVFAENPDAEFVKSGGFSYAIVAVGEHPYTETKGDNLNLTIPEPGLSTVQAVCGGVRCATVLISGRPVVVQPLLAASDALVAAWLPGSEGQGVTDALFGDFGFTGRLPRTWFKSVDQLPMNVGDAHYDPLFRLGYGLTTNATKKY
Outline: (§1)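 Steady-state apparent constants are derived from proportionally weighted nonlinear regression of Michaelis-Menten data. Rates of hydrolysis of polysaccharides, oligosaccharides and aryl-glucosides are relative values obtained with 50 pmoles of near-homogeneous HvExoI. The pH and temperature dependence was tested on 0.2% (w/v) 4NP-Glc.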

HvExoI W434F mutant = molecular target: T2, HvExoI W434F mutant (Hordeum vulgare, UniProt Q9XEI3, W459F); details: substance is the substrate, nd = activity not detected
T2 sequence (Q9XEI3 26-630 W459F): T1 sequence (Q9XEI3 26-630 W311F/W459A) with F286W, A434F
Outline: as §1

HvExoI W286F mutant = molecular target: T3, HvExoI W286F mutant (Hordeum vulgare, UniProt Q9XEI3, W311F); details: substance is the substrate, nd = activity not detected
T3 sequence (Q9XEI3 26-630 W311F): T1 sequence (Q9XEI3 26-630 W311F/W459A) with A434W
Outline: as §1

WT HvExoI = WT HvExoI (Hordeum vulgare, UniProt Q9XEI3); details: substance is the substrate, HvExoI at 50 pmoles, nd = activity not detected
Sequence of WT HvExoI (Q9XEI3 entry or part of it): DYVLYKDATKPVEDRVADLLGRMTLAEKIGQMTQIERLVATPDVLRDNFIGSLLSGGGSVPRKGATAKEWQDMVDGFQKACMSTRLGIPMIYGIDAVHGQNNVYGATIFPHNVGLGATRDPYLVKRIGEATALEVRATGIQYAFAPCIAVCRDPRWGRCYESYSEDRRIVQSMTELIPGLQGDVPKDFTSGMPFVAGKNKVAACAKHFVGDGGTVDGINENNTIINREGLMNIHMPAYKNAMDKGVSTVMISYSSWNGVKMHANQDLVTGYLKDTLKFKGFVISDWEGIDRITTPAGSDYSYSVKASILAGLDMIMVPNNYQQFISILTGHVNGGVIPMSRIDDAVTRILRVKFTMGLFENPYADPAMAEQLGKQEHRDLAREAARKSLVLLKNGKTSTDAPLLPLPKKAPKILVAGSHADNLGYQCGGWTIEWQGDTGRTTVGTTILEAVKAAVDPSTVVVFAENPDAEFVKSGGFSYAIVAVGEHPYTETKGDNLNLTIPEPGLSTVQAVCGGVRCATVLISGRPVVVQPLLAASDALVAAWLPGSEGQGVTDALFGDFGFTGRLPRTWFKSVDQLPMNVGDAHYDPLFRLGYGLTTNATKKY
Outline: as §1

Compound	Activity (relative rate of hydrolysis) [1] [μmole/min per mg protein]	Activity (relative rate of hydrolysis) (HvExoI W434F mutant) [μmole/min per mg protein]	Activity (relative rate of hydrolysis) (HvExoI W286F mutant) [μmole/min per mg protein]	Activity (relative rate of hydrolysis) (WT HvExoI) [μmole/min per mg protein]
Cellobiose	0.01 ± 0.001	0.4 ± 0.1	0.1 ± 0.01	4.6 ± 0.2
OC[C@H]1O[C@@H](O[C@H]2[C@H](O)[C@@H](O)[C@H](O[C@H]3[C@H](O)[C@@H](O)C(O)O[C@@H]3CO)O[C@@H]2CO)[C@H](O)[C@@H](O)[C@@H]1O (stereo partly shown) [Cellotriose]	0.01 ± 0.001	1.2 ± 0.3	0.1 ± 0.01	8.8 ± 0.4
OC[C@H]1O[C@@H](O[C@H]2[C@H](O)[C@@H](O)[C@H](O[C@H]3[C@H](O)[C@@H](O)[C@H](O[C@H]4[C@H](O)[C@@H](O)C(O)O[C@@H]4CO)O[C@@H]3CO)O[C@@H]2CO)[C@H](O)[C@@H](O)[C@@H]1O (stereo partly shown) [Cellotetraose]	0.1 ± 0.01	1.9 ± 0.1	0.1 ± 0.01	8.5 ± 0.7
OC[C@H]1O[C@@H](O[C@H]2C(O)O[C@H](CO)[C@@H](O)[C@@H]2O)[C@H](O)[C@@H](O)[C@@H]1O (stereo partly shown) [Sophorose]	0.02 ± 0.001	6.6 ± 0.4	0.6 ± 0.01	6.0 ± 0.1
OC[C@H]1O[C@@H](O[C@H]2[C@H](O)[C@@H](O)[C@H](O[C@H]3[C@H](O)[C@@H](O)[C@H](O[C@H]4[C@H](O)[C@@H](O)[C@H](O[C@H]5[C@H](O)[C@@H](O)C(O)O[C@@H]5CO)O[C@@H]4CO)O[C@@H]3CO)O[C@@H]2CO)[C@H](O)[C@@H](O)[C@@H]1O (stereo partly shown) [Cellopentaose]	0.01 ± 0.0003	1.7 ± 0.1	0.1 ± 0.01	8.4 ± 0.4
Gentiobiose	0.002 ± 0.0002	1.2 ± 0.3	0.4 ± 0.03	4.7 ± 0.4
OC[C@H]1O[C@@H](O[C@H]2[C@H](O)[C@@H](O)[C@H](O[C@H]3[C@H](O)[C@@H](O)[C@H](O[C@H]4[C@H](O)[C@@H](O)[C@H](O[C@H]5[C@H](O)[C@@H](O)[C@H](O[C@H]6[C@H](O)[C@@H](O)C(O)O[C@@H]6CO)O[C@@H]5CO)O[C@@H]4CO)O[C@@H]3CO)O[C@@H]2CO)[C@H](O)[C@@H](O)[C@@H]1O (stereo partly shown) [Cellohexaose]	0.01 ± 0.0002	1.9 ± 0.1	0.1 ± 0.01	9.1 ± 0.2
